Measured values published in the NIST ThermoML archive (doi:10.1021/je201334p).

Assay: xn = mol fraction of the nth substance listed
Conditions: 101 kPa, Liquid; for speed of sound: Sing-around technique in a fixed-path interferometer; for mass density: Vibrating tube method

CCCC[N+]1(C)CCCC1.N#CN=C=[N-] [1-butyl-1-methylpyrrolidinium dicyanamide] + O
Conditions | mass density, 288.15 K [kg/m3] | mass density, 298.15 K [kg/m3] | speed of sound, 288.15 K [m/s] | speed of sound, 298.15 K [m/s] | speed of sound, 308.15 K [m/s]
x2 = 0 | 1019.17 | 1013.53 | 1836.9 | 1811.1 | 1781.9
x2 = 0.096 | 1018.92 | 1013.25 | 1836.1 | 1810.6 | 1782.4
x2 = 0.1277 | 1018.84 | 1013.16 | 1835.8 | 1810.4 | 1783.1
x2 = 0.2116 | 1018.6 | 1012.89 | 1835.3 | 1810.1 | 1783.8
x2 = 0.3077 | 1018.31 | 1012.56 | 1835.6 | 1810 | 1784.2
x2 = 0.3942 | 1018.08 | 1012.27 | 1834.9 | 1810 | 1785.7
x2 = 0.4952 | 1017.78 | 1011.89 | 1835.1 | 1810.8 | 1786.7
x2 = 0.5023 | 1017.76 | 1011.86 | 1835.2 | 1810.9 | 1786.7
x2 = 0.6047 | 1017.45 | 1011.42 | 1835.9 | 1811.8 | 1788
x2 = 0.6137 | 1017.41 | 1011.37 | 1835.7 | 1811.8 | 1788
x2 = 0.7061 | 1016.91 | 1010.72 | 1832.9 | 1809.6 | –
x2 = 0.7177 | 1016.81 | 1010.61 | 1832 | 1808.9 | –
x2 = 0.7571 | 1016.39 | 1010.13 | 1827.3 | 1804.9 | –
x2 = 0.8208 | 1015.22 | 1008.91 | 1810.9 | 1790.5 | –
x2 = 0.8468 | 1014.46 | 1008.19 | 1798.5 | 1779.7 | –
x2 = 0.9034 | 1011.96 | 1005.98 | 1750.6 | 1738.3 | –
x2 = 0.904 | 1011.92 | 1005.93 | 1749.8 | 1737.2 | –
x2 = 0.9492 | 1008.27 | 1003.12 | 1671.5 | 1670.7 | –
x2 = 0.9507 | 1008.1 | 1002.99 | 1667.9 | 1667.7 | –
x2 = 0.9517 | 1007.98 | 1002.91 | 1665.4 | 1665.5 | –
